Earlier results in patent US20050282773A1, “Modified polysaccharides in combination with anti-cancer drugs for enhanced treatment of cancer” (Pro-Pharmaceuticals, Inc., priority 2004, published 2005).

Experiments:
L-1 sarcoma cells = settings: in vivo
B16 melanoma cells = settings: in vivo

## arabinogalactose
L-1 sarcoma cells
  liver metastasis of L-1 sarcoma cells: inhibited

## O=C[C@H](O)[C@@H](O)[C@@H](O)[C@H](O)CO [D-galactose]
L-1 sarcoma cells
  liver metastasis of L-1 sarcoma cells: inhibited

## CO[C@H]1O[C@H](CO)[C@@H](O[C@@H]2O[C@H](CO)[C@H](O)[C@H](O)[C@H]2O)[C@H](O)[C@H]1O [methyl-α-D-lactoside]
B16 melanoma cells
  metastasis of B16 melanoma cells: inhibit

## CC(=O)N[C@H]1[C@H](O[C@H]2[C@@H](O)[C@@H](CO)O[C@@H](O[C@H]3[C@H](O)[C@@H](O)C(O)O[C@@H]3CO)[C@@H]2O)O[C@H](CO)[C@@H](O)[C@@H]1O[C@@H]1O[C@H](CO)[C@H](O)[C@H](O)[C@H]1O (stereo partly shown) [lacto-N-tetrose]
B16 melanoma cells
  metastasis of B16 melanoma cells: inhibit
